What was measured:
[1] = when hydrocortisone is set to 1; cited from earlier work
[2] = Titer of corticosteroid as glucocorticoid; conditions: titer as glucocorticoid taken for the converted concentrations of the Examples
[3] = system: iNCC (iPS cell-derived neural crest cell); experiment: Differentiation induction from iNCC into iMSC, surface antigen analysis using FACS; type: cell-based, human
Description: The obtained iNCCs (iPSC-derived NCCs) were seeded at a density of 5.0×10^3 cells/well into a 6-well plate coated with vitronectin-N (Thermo Fisher Scientific) at a density of 1.5 μg/cm^2 and cultured under 37° C., 5% CO2 conditions for […] using the following differentiation medium (T3 medium) to induce iMSCs (iPSC-derived MSCs).
T3 medium: StemFit (registered trademark) For Mesenchymal Stem Cells (Ajinomoto Co., Inc.), 90 nM Dexamethasone (Sigma-Aldrich) […]
iMSC was induced according to Example 1, except that 100 nM Dexamethasone, 100 nM betamethasone, 100 nM predonisolone, 666 nM predonisolone were used.
Regarding the induced iMSC, surface antigen analysis of 4 types of MSC positive markers (CD90, CD44, CD73, CD105), 1 type of NCC positive marker (MSC micro-positive marker) (CD271), and two types of MSC negative markers (CD45 and CD34) was performed using FACS.

[4] = system: LX-2 Human Hepatic Stellate Cell Line; experiment: Antifibrotic action of secretome: RT-PCR of fibrosis marker genes COL1A1 and ACTA2 in LX-2 cells; type: cell-based; conditions: effect of TGF-β1 stimulation itself (10 ng/mL)
Description: LX-2 Human Hepatic Stellate Cell Line (EDM Millipore, hereinafter LX-2 cells) was cultured in a DMEM high Glucose (Life Technologies) medium supplemented with 10% FBS (Gibco), 1% penicillin-streptomycin (Nacalai), and 2 mM Glutamine (Gibco). On the fourth passage, 4×10^4 cells were seeded into each well of a 12-well plate. After 2 days of culture, the medium was replaced with a medium in which concentrated secretome obtained from iMSC was added at a concentration of 1× to a medium supplemented with 10 ng/mL TGF-β1 (Peprotech), and the culture was continued. On the second day after replacing the medium, cells were detached with Accutase (Thermo Fisher), and after collection, RNA was extracted and purified using Maxwell (registered trademark) 16 LEV simplyRNA Purification Kits (Promega), and reverse transcription was performed using PrimeScript™ RT Master Mix (Takara). RT-PCR was performed on the synthesized cDNA using the primers of TaqMan (registered trademark) Gene Expression Assays shown in Table 5.

[5] = system: TSG-6 (TNFAIP6); experiment: Gene expression of TSG-6 (TNFAIP6) after IFNγ stimulation, Real-Time PCR; type: cell-based, human; conditions: iMSC induced by adding 50 nM to 10 μM Dexamethasone, 18 days; 50 ng/mL IFNγ for 48 hr; FIG. 3
Description: iNCCs were seeded at a density of 5.0×10^3 cells/well into a 6-well plate coated with vitronectin-N at a density of 1.5 μg/cm^2, and cultured under 37° C., 5% CO2 conditions for 16 days using T3 medium to induce iMSCs.
After 16 days from the start of induction, 50 ng/mL IFNγ (R&D Systems) was added to T3 medium to stimulate for 48 hr. After stimulation, RNA was purified according to the protocol of PureLink (trademark) RNA Mini Kit (Thermo Fisher Scientific) and, after reverse transcription, gene expression of TSG-6 (TNFAIP6), a therapeutic marker for inflammatory diseases, was analyzed using Real-Time PCR. As comparison targets, iNCC-derived iMSC induced to differentiate in αMEM medium containing 10% FBS, and two lots of living bone marrow-derived MSC (BMMSC) (Lonza or RoosterBio) cultured in T3 medium for 12 to 16 days were used (Table 2).
iNCCs were seeded at a density of 3.0×10^4 cells/well into a 6-well plate coated with vitronectin-N at a density of 1.5 μg/cm^2, and cultured under 37° C., 5% CO2 conditions using StemFit (registered trademark) For Mesenchymal Stem Cells supplemented with 50 nM, 100 nM, 1 μM, 10 μM, 50 μM Dexamethasone to induce iMSCs. […] After stimulation, RNA was purified and, after reverse transcription, gene expression of TNFAIP6 was analyzed using Real-Time PCR.

[6] = system: iNCC; experiment: Cell proliferation curve during differentiation induction; type: cell-based, human; conditions: group added with 50 μM; FIG. 2
[7] = StemFit For MSC + 100 nM corticosteroid
[8] = StemFit For MSC + 666 nM corticosteroid

C[C@]12C=CC(=O)C=C1CC[C@H]1[C@@H]3C[C@@H](O)[C@](O)(C(=O)CO)[C@@]3(C)C[C@H](O)[C@@]12F [triamcinolone]
titer of corticosteroid as glucocorticoid [1]: 5

C[C@]12C=CC(=O)C=C1CC[C@@H]1[C@@H]2[C@@H](O)C[C@@]2(C)[C@H]1CC[C@]2(O)C(=O)CO [Prednisolone]
titer of corticosteroid as glucocorticoid [1]: 4 | titer used to convert concentrations [2]: 4 | effect in promoting differentiation ([3]; 666 nM, titer as glycocorticoid aligned): effective in promoting differentiation | CD34 (MSC negative marker) FACS [3, 7]: 9.22% | CD44 (MSC positive marker) FACS [3, 7]: 99.60% | CD45 (MSC negative marker) FACS [3, 7]: 0.56% | CD73 (MSC positive marker) FACS [3, 7]: 96.38% | CD90 (MSC positive marker) FACS [3, 7]: 98.99% | CD105 (MSC positive marker) FACS [3, 7]: 93.32% | CD271 (NCC positive, MSC micro-positive marker) FACS [3, 7]: 56.94% | CD34 (MSC negative marker) FACS [3, 8]: 9.86% | CD44 (MSC positive marker) FACS [3, 8]: 99.70% | CD45 (MSC negative marker) FACS [3, 8]: 0.88% | CD73 (MSC positive marker) FACS [3, 8]: 97.38% | CD90 (MSC positive marker) FACS [3, 8]: 99.18% | CD105 (MSC positive marker) FACS [3, 8]: 95.28% | CD271 (NCC positive, MSC micro-positive marker) FACS [3, 8]: 41.02% | effect in promoting differentiation ([3]; added at 100 nM): limited effect

TGF-β1: TGF-β1 (Peprotech), 10 ng/mL stimulus of LX-2 cells
ACTA2 expression [4]: markedly increased | COL1A1 expression [4]: markedly increased

C[C@H]1C[C@H]2[C@@H]3CCC4=CC(=O)C=C[C@]4(C)[C@@]3(F)[C@@H](O)C[C@]2(C)[C@@]1(O)C(=O)CO [Betamethasone]
CD34 (MSC negative marker) FACS [3, 7]: 8.12% | CD44 (MSC positive marker) FACS [3, 7]: 99.60% | CD45 (MSC negative marker) FACS [3, 7]: 0.88% | CD73 (MSC positive marker) FACS [3, 7]: 97.86% | CD90 (MSC positive marker) FACS [3, 7]: 98.96% | CD105 (MSC positive marker) FACS [3, 7]: 95.34% | CD271 (NCC positive, MSC micro-positive marker) FACS [3, 7]: 34.14%

C[C@@H]1C[C@H]2[C@@H]3CCC4=CC(=O)C=C[C@]4(C)[C@@]3(F)[C@@H](O)C[C@]2(C)[C@@]1(O)C(=O)CO [Dexamethasone, Pregna-1,4-diene-3,20-dione,9-fluoro-11,17,21-trihydroxy-16-methyl-, (11β,16α)-]
gene expression of TSG-6 by IFNγ stimulation [5]: significantly increased | titer used to convert concentrations [2]: 26.66 | CD34 (MSC negative marker) FACS [3, 7]: 10.52% | CD44 (MSC positive marker) FACS [3, 7]: 99.26% | CD45 (MSC negative marker) FACS [3, 7]: 0.64% | CD73 (MSC positive marker) FACS [3, 7]: 97.82% | CD90 (MSC positive marker) FACS [3, 7]: 99.22% | CD105 (MSC positive marker) FACS [3, 7]: 96.36% | CD271 (NCC positive, MSC micro-positive marker) FACS [3, 7]: 23.42% | proliferation of cells during differentiation induction [6]: stopped after day 13

C[C@@H]1C[C@H]2[C@@H]3C[C@H](F)C4=CC(=O)C=C[C@]4(C)[C@H]3[C@@H](O)C[C@]2(C)[C@@]1(O)C(=O)CO [paramethasone]
titer of corticosteroid as glucocorticoid [1]: 10

C[C@]12CCC(=O)C=C1CC[C@@H]1[C@@H]2C(=O)C[C@@]2(C)[C@H]1CC[C@]2(O)C(=O)CO [cortisone]
titer of corticosteroid as glucocorticoid [1]: 0.8

— patent US20240182862A1, “METHOD FOR PRODUCING MESENCHYMAL STEM CELLS” (AJINOMOTO CO., INC., priority 2021, published 2024)
